According to patent publication US10266497B2 (ABIDE THERAPEUTICS, INC., priority 2017, dated 2019):
pIC50: −log10 of the molar value. Read-outs that look alike come from different tables or passages of the source.

Columns and labels:
[1] = target: T1, MAGL (Homo sapiens, UniProt Q99685); assay: In vitro competitive activity-based protein profiling, MAGL, human; conditions: read-out: MAGL % inh. 1 μM (human)
T1 sequence (Q99685 1-303): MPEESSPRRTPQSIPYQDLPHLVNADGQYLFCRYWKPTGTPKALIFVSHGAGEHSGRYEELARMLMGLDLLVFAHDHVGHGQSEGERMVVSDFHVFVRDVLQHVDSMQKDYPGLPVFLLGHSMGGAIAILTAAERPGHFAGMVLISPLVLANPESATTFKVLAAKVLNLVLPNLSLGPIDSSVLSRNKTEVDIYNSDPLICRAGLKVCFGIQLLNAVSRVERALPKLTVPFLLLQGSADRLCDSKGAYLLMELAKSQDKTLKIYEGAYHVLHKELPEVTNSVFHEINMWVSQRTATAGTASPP

[2] = target: T2, MAGL (Mus musculus, UniProt O35678); assay: In vitro competitive activity-based protein profiling, MAGL, mouse; conditions: read-out: MAGL % inh. 1 μM (mouse)
T2 sequence (O35678 1-303): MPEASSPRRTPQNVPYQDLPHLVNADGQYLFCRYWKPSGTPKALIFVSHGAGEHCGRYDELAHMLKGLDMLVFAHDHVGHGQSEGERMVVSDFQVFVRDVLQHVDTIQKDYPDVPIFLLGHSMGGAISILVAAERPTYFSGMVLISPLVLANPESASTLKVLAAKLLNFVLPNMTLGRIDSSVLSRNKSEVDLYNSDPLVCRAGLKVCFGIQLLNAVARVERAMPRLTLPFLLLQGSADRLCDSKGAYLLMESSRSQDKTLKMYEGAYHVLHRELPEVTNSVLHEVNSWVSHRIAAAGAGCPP

[3] = target: T2, MAGL; assay: Mouse brain proteomes from inhibitor treated mice (oral gavage, sacrificed 4 h after administration); format: in vivo; design: mouse brain membrane fraction for mouse assays; from tissue; host or cells: mouse brain (membrane fraction in vitro; brain proteomes of treated C57Bl/6J mice in vivo); conditions: 5 mg/kg oral gavage, brain proteome 4 h after administration, read-out: MAGL % inh. 5 mg/kg (mouse)
[4] = target: T3, FAAH (Homo sapiens, UniProt O00519); assay: In vitro competitive activity-based protein profiling, FAAH, human; conditions: for inhibition at 1 µM: read-out: FAAH % inh. 1 μM (human)
T3 sequence (O00519 1-579): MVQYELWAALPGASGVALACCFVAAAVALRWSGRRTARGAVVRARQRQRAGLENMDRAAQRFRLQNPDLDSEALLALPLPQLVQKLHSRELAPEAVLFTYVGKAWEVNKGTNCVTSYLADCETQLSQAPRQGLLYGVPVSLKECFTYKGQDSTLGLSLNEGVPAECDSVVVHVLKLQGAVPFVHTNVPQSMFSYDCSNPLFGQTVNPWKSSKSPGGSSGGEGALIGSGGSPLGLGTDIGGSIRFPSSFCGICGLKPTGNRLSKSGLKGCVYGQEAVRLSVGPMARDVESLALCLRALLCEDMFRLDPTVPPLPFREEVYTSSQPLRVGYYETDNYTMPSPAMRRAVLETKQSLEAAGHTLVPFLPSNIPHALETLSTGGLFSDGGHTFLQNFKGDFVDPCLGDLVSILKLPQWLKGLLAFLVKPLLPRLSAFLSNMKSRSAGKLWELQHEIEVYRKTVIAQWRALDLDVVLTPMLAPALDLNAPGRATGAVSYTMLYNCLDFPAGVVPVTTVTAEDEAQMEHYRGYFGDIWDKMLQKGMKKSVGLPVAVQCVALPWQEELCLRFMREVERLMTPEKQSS

[5] = target: T4, FAAH (Mus musculus, UniProt O08914); assay: In vitro competitive activity-based protein profiling, FAAH, mouse; conditions: read-out: FAAH % inh. 1 μM (mouse)
T4 sequence (O08914 1-579): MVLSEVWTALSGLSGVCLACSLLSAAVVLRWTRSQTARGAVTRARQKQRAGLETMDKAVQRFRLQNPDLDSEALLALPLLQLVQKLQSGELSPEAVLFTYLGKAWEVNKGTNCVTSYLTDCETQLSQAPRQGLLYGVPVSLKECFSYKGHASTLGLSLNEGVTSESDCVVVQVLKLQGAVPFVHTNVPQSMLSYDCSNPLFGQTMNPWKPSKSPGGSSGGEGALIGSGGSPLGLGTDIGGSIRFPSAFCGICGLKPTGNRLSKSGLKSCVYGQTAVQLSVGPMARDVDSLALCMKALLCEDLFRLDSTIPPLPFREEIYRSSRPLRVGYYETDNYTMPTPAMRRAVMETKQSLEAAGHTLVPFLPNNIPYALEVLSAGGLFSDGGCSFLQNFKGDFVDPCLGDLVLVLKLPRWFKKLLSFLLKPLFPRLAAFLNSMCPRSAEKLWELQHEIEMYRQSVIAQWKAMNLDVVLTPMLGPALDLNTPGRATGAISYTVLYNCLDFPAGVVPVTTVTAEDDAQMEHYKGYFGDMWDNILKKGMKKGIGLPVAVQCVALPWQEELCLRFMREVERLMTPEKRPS

SMILES | inhibition at 1 µM [1] [%] | inhibition at 1 µM [2] [%] | inhibition at 5 mg/kg [3] [%] | inhibition at 1 µM [4] [%] | inhibition at 1 µM [5] [%] | pIC50 [4] | inhibition at 5 mg/kg ([3]; C57Bl/6J mice) [%]
O=C(O)c1nn(C(=O)N2CCC3(CCN(Cc4cccc(Cl)c4C(F)(F)F)C3)CC2)cc1Cl [Example 26, 4-Chloro-1-(2-(3-chloro-2-(trifluoromethyl)benzyl)-2,8-diazaspiro[4.5]decane-8-carbonyl)-1H-pyrazole-3-carboxylic Acid] | > 75 | > 75 | 0 to 25 | – | – | – | –
NC(=O)c1ccn(C(=O)N2CC3CN(Cc4ccc(C5(C(=O)O)CCOCC5)cc4C(F)(F)F)CC3C2)n1 (centres unmarked) [Example 35, 4-(4-((5-(3-carbamoyl-1H-pyrazole-1-carbonyl)hexahydropyrrolo[3,4-c]pyrrol-2(1H)-yl)methyl)-3-(trifluoromethyl)phenyl)tetrahydro-2H-pyran-4-carboxylic Acid] | > 75 | > 75 | 0 to 25 | – | – | – | –
O=C(O)c1ccn(C(=O)N2CCN(Cc3nc4ccccc4s3)CC2)n1 [Example 189, 1-(4-(benzo[d]thiazol-2-ylmethyl)piperazine-1-carbonyl)-1H-pyrazole-3-carboxylic acid] | > 75 | > 75 | – | 0 to 25 | 0 to 25 | – | –
O=C(O)c1ccn(C(=O)N2CCC(NCc3cccc(Oc4ccc(Cl)cc4)c3)CC2)n1 [Example 190, 1-(4-((3-(4-chlorophenoxy)benzyl)amino)piper-idine-1-carbonyl)-1H-pyrazole-3-carboxylic acid] | 25 to 50 | 0 to 25 | – | 25 to 50 | 50 to 75 | – | –
O=C(O)c1ccn(C(=O)N2CCC3(CCN(Cc4ccc(N5CCCC5)cc4C(F)(F)F)C3)CC2)n1 [Example 191, 1-(2-(4-(pyrrolidin-1-yl)-2-(trifluoromethyl)benzyl)-2,8-diazaspiro[4.5]decane-8-carbonyl)-1H-pyrazole-3-carboxylic acid] | > 75 | > 75 | – | 0 to 25 | 0 to 25 | – | –
O=C(O)c1ccn(C(=O)N2CCC3(CCN(Cc4cccc(C(F)(F)F)c4)C3)CC2)n1 [Example 192, 1-(2-(3-(trifluoromethyl)benzyl)-2,8-diazaspiro[4.5]decane-8-carbonyl)-1H-pyrazole-3-carboxylic acid] | > 75 | 25 to 50 | – | 0 to 25 | 0 to 25 | – | –
O=C(O)c1ccn(C(=O)N2C[C@H]3C[C@@H](OCc4cc(F)cc(Cl)c4)C[C@H]3C2)n1 [Example 193, 1-(cis-5-((3-chloro-5-fluorobenzyl)oxy)octahydrocyclopenta [c]pyrrole-2-carbonyl)-1H-pyrazole-3-carboxylic acid] | 25 to 50 | 25 to 50 | – | > 75 | > 75 | – | –
NC(=O)c1ccn(C(=O)N2CCC3(CCN(Cc4ccc(N5CCCC5)cc4C(F)(F)F)C3)CC2)n1 [Example 195, 1-(2-(4-(pyrrolidin-1-yl)-2-(trifluoromethyl)benzyl)-2,8-diazaspiro[4.5]decane-8-carbonyl)-1H-pyrazole-3-carboxamide] | > 75 | 0 to 25 | – | > 75 | > 75 | – | –
NC(=O)c1ccn(C(=O)N2CCC3(CCN(Cc4ccc(N5CCOCC5)cc4Cl)C3)CC2)n1 [Example 197, 1-(2-(2-chloro-4-morpholinobenzyl)-2,8-diazaspiro[4.5]decane-8-carbonyl)-1H-pyrazole-3-carboxamide] | > 75 | > 75 | – | > 75 | > 75 | 6.00 to 7.00 | –
NC(=O)c1ccn(C(=O)N2CC3CN(Cc4ccc(Cl)cc4)CC3C2)n1 (centres unmarked) [Example 203, 1-(5-(4-chlorobenzyl)octa-hydropyrrolo[3,4-c]pyrrole-2-carbonyl)-1H-pyrazole-3-carboxamide] | > 75 | > 75 | – | > 75 | > 75 | – | –
CN(Cc1cc(Cl)ccc1C(F)(F)F)CC1CCN(C(=O)n2ccc(C(=O)O)n2)CC1 [Example 209, 1-(4-(((5-chloro-2-(trifluoromethyl)benzyl)(methyl)amino)methyl)piper-idine-1-carbonyl)-1H-pyrazole-3-carboxylic acid] | > 75 | > 75 | – | > 75 | > 75 | 6.00 to 7.00 | –
CC(C)c1cccc(O[C@H]2C[C@@H]3CN(C(=O)n4ccc(C(=O)O)n4)C[C@@H]3C2)c1 [Example 220, 1-(trans-5-(3-isopropylphenoxy)ocatahydrocyclo-penta[c]pyrrole-2-carbonyl)-1H-pyrazole-3-carboxylic acid] | > 75 | > 75 | 25 to 50 | – | – | – | –
O=C(O)c1ccn(C(=O)N2C[C@H]3C[C@H](Oc4cc(Cl)cc(Cl)c4)C[C@H]3C2)n1 [Example 230, 1-(trans-5-(3,5-dichlorophenoxy)octahydrocyclopenta [c]pyrrole-2-carbonyl)-1H-pyrazole-3-carboxylic acid] | > 75 | > 75 | 0 to 25 | – | – | – | –
O=C(O)c1ccn(C(=O)N2C[C@H]3C[C@H](Oc4cccc(-c5cccnc5)c4)C[C@H]3C2)n1 [Example 241, 1-(trans-5-(3-(pyridin-3-yl)phenoxy)octa-hydrocyclopenta[c]pyrrole-2-carbonyl)-1H-pyrazole-3-carboxylic acid] | > 75 | > 75 | 0 to 25 | – | – | – | –
CNC(=O)c1ccn(C(=O)N2CC3CN(Cc4ccc(Cl)cc4)CC3C2)n1 (centres unmarked) [Example 424, 1-(5-(4-chlorobenzyl)octahydropyrrolo [3,4-c]pyrrole-2-carbonyl)-N-methyl-1H-pyrazole-3-carboxamide] | – | > 75 | – | – | – | – | > 75
NC(=O)c1ccn(C(=O)N2CCC3(CCN(Cc4cc(Cl)ccc4Cl)C3)C2)n1 (centres unmarked) [Example 426, 1-(7-(2,5-dichlorobenzyl)-2,7-diazaspiro[4.4]non-ane-2-carbonyl)-1H-pyrazole-3-carboxamide] | – | > 75 | – | – | – | – | > 75
NC(=O)c1ccn(C(=O)N2CCC3(CCN(Cc4cc(Cl)cc(C(F)(F)F)c4)C3)C2)n1 (centres unmarked) [Example 433, 1-(7-(3-chloro-5-(trifluoromethyl)benzyl)-2,7-diazaspiro[4.4]non-ane-2-carbonyl)-1H-pyrazole-3-carboxamide] | – | > 75 | – | – | – | – | > 75
